Read-outs that look alike come from different tables or passages of the source.
Experiments:
Aβ42 fibrils [1] = target: T1, Aβ42 fibrils (Homo sapiens, UniProt P05067); assay: Transmission electron microscope (TEM) imaging of Aβ42 fibrils with olive biophenols; assay type: biochemical; conditions: biophenol ≥200 µM, 20 µM Aβ42 fibrils, 24 h, 37 °C
Description: Ten µL aliquot of each sample was spotted onto a glow-discharged, carbon-coated formvar grid and incubated for 30 min. The droplet then was displaced with an equal volume of 2.5% glutaraldehyde (v/v) and incubated for an additional 5 min. Finally, the grid was stained with 10 μL of 3% 0.22 µm filtered uranyl acetate (v/v) twice, and the solution was gently wicked off using Whatman’s grade-1 qualitative filter paper and the grid was then air-dried. Samples were examined by using a Hitachi H7100FA TEM (Hitachi, Japan) at the Centre for Advanced Microscopy, Australian National University, Canberra. All the images were captured at a voltage of 125 kV and an instrumental magnification of 2000×.

SH-SY5Y cells [2] = tested on: SH-SY5Y cells
Aβ42 fibrils [3] = target: T1, Aβ42 fibrils; assay: Thioflavin-T (ThT) fluorometric assay, Aβ42 fibril inhibition; assay type: biochemical; conditions: for Thioflavin-T Assay % Inhibition: highest concentration, 1000 µM standard
SH-SY5Y cells [4] = tested on: SH-SY5Y cells; remark: listed apart in the source
Aβ42 fibrils [5] = target: T1, Aβ42 fibrils; assay: Congo red binding assay, Aβ42 fibril inhibition; assay type: biochemical; conditions: for Congo-Red Assay % Inhibition: highest concentration, 1000 µM standard
SH-SY5Y cells [6] = assay: Aβ42 induced SH-SY5Y cells toxicity and olive biophenols treatment (MTT viability); conditions: 1000 µM standard, 24 h pre-incubation, then 25 µM Aβ42 for 24 h
BACE-1 enzyme = tested on: BACE-1 enzyme; parameters: method as in PMID 29772299; conditions: among olive biophenols; cited from earlier work
SH-SY5Y cells [7] = tested on: SH-SY5Y cells; parameters: method as in PMID 29109370; conditions: cited from earlier work
SH-SY5Y cells [8] = conditions: human, 1000 µM
SH-SY5Y cells [9] = conditions: human, 1000 µM; remark: listed apart in the source
[10] = 1000 µM standard, 24 h pre-incubation, then 25 µM Aβ42 and 200 µM copper for 24 h
[11] = 1000 µM standard, 24 h pre-incubation, then 25 µM Aβ42 and 200 µM L-DOPA for 24 h
[12] = standard biophenols 10–1000 µM, pre-formed Aβ42 fibril, 2 h, room temperature

T1 sequence (P05067 672-713 limits assumed): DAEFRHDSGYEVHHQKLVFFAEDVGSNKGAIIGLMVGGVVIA

| Thioflavin-T Assay IC50 (Aβ42 fibrils [3]; [12]) | IC50 (Aβ42 fibrils [3]; [12]) [µM] | IC50 (Aβ42 fibrils [5]; standard biophenols 10–1000 µM, pre-formed Aβ42 fibril, 2 h, room temperature, read-out: Congo-Red Assay IC50) [µM] | SMILES | Effect on formed Aβ42 fibrils (TEM) (Aβ42 fibrils [1]) | Aβ-Cu-SH-SY5Y Toxicity % Viability (SH-SY5Y cells [2]; [10]) [%] | IC50 (Aβ42 fibrils [3]) [µM] | Thioflavin-T Assay % Inhibition (Aβ42 fibrils [3]) [%] | Aβ-L-DOPA-SH-SY5Y Toxicity % Viability (SH-SY5Y cells [4]; [11]) [%] | Congo-Red Assay % Inhibition (Aβ42 fibrils [5]) [%] | IC50 (Aβ42 fibrils [5]; read-out: Congo-Red Assay IC50) [µM] | Aβ-SH-SY5Y Toxicity % Viability (SH-SY5Y cells [6]) [%] | BACE-1 enzyme inhibition (BACE-1 enzyme) | Protection of SH-SY5Y cells against Cu-induced toxicity (SH-SY5Y cells [7]) | Aβ-SH-SY5Y Toxicity % Viability (SH-SY5Y cells [8]) [%] | Aβ-Cu-SH-SY5Y Toxicity % Viability (SH-SY5Y cells [9]) [%] | Aβ-L-DOPA-SH-SY5Y Toxicity % Viability (SH-SY5Y cells [4]; human, 1000 µM) [%] | Congo-Red Assay IC50 (Aβ42 fibrils [5]; [12]) | Aβ-Cu-SH-SY5Y Toxicity % Viability (SH-SY5Y cells [2]; human, SH-SY5Y neuroblastoma cells, 1000 µM) [%] | IC50 (Aβ42 fibrils [5]) [µM] |
| --- | --- | --- | --- | --- | --- | --- | --- | --- | --- | --- | --- | --- | --- | --- | --- | --- | --- | --- | --- |
|  |  |  | C/C=C1/[C@H](O[C@@H]2O[C@H](CO)[C@@H](O)[C@H](O)[C@H]2O)OC=C(C(=O)OC)[C@H]1CC(=O)OCCc1ccc(O)c(O)c1 [Oleuropein (OL), Oleuropein] | significant reduction in both the size and number of fibrils | 76 ± 1.61 | 22.9 | 61 ± 0.33 | 74 ± 0.23 | 65 ± 0.3 | 36.5 | 68 ± 0.69 | strongest inhibitor |  |  |  |  |  |  |  |
|  |  |  | C[C@@H]1O[C@@H](O[C@@H]2[C@@H](O)[C@H](OCCc3ccc(O)c(O)c3)O[C@H](CO)[C@H]2OC(=O)/C=C/c2ccc(O)c(O)c2)[C@H](O)[C@H](O)[C@H]1O [Verbascoside (VB), Verbascoside] |  |  | 22.6 | 61 ± 0.35 |  | 57 ± 0.51 | 59.6 |  | strongest inhibitor | rescue SH-SY5Y cells | 66 ± 1.11 | 70 ± 0.48 | 69 ± 0.66 |  |  |  |
| unable to achieve IC50 value |  |  | O=C(O)/C=C/c1ccc(O)c(O)c1 [Caffeic acid (CA), Caffeic acid] |  | 62 ± 0.93 |  |  | 67 ± 0.43 |  |  | 62 ± 0.53 |  |  |  |  |  | unable to achieve IC50 value |  |  |
| unable to achieve IC50 value |  |  | OCCc1ccc(O)c(O)c1 [Hydroxytyrosol (HT), Hydroxytyrosol] |  | 60 ± 0.84 |  | 45 ± 0.47 | 64 ± 1.02 | 50 ± 0.4 | 97.8 | 60 ± 1.00 |  |  |  |  |  |  |  |  |
|  | 15.4 | 14.4 | CC(Cc1ccc(O)c(O)c1)C(C)Cc1ccc(O)c(O)c1 (stereo not shown) [Nordihroguaretic acid (NDGA), Nordihydroguaiaretic acid, reference compound] |  |  |  | 70 ± 0.5 |  | 69 ± 0.4 |  |  |  |  |  |  |  |  |  |  |
|  |  |  | O=c1c(O)c(-c2ccc(O)c(O)c2)oc2cc(O)cc(O)c12 [Quercetin (QU), Quercetin] | moderate reduction in fibril formation |  | 45.9 | 57 ± 0.34 |  | 55 ± 0.71 |  |  |  | rescue SH-SY5Y cells |  |  |  |  | 60 ± 0.52 | 73.8 |
|  |  |  | O=c1cc(-c2ccc(O)c(O)c2)oc2cc(O)cc(O)c12 [Luteolin (LU), Luteolin] |  | 67 ± 0.52 | 36.9 | 64 ± 0.4 | 69 ± 0.87 | 61 ± 0.33 | 46.3 | 65 ± 0.39 |  |  |  |  |  |  |  |  |

| SMILES | Thioflavin-T Assay IC50 (Aβ42 fibrils [3]; [12]) | IC50 (Aβ42 fibrils [3]; [12]) [µM] | IC50 (Aβ42 fibrils [5]; standard biophenols 10–1000 µM, pre-formed Aβ42 fibril, 2 h, room temperature, read-out: Congo-Red Assay IC50) [µM] | Effect on formed Aβ42 fibrils (TEM) (Aβ42 fibrils [1]) | Aβ-Cu-SH-SY5Y Toxicity % Viability (SH-SY5Y cells [2]; [10]) [%] | IC50 (Aβ42 fibrils [3]) [µM] | Thioflavin-T Assay % Inhibition (Aβ42 fibrils [3]) [%] | Aβ-L-DOPA-SH-SY5Y Toxicity % Viability (SH-SY5Y cells [4]; [11]) [%] | Congo-Red Assay % Inhibition (Aβ42 fibrils [5]) [%] | IC50 (Aβ42 fibrils [5]; read-out: Congo-Red Assay IC50) [µM] | Aβ-SH-SY5Y Toxicity % Viability (SH-SY5Y cells [6]) [%] | BACE-1 enzyme inhibition (BACE-1 enzyme) | Protection of SH-SY5Y cells against Cu-induced toxicity (SH-SY5Y cells [7]) | Aβ-SH-SY5Y Toxicity % Viability (SH-SY5Y cells [8]) [%] | Aβ-Cu-SH-SY5Y Toxicity % Viability (SH-SY5Y cells [9]) [%] | Aβ-L-DOPA-SH-SY5Y Toxicity % Viability (SH-SY5Y cells [4]; human, 1000 µM) [%] | Congo-Red Assay IC50 (Aβ42 fibrils [5]; [12]) | Aβ-Cu-SH-SY5Y Toxicity % Viability (SH-SY5Y cells [2]; human, SH-SY5Y neuroblastoma cells, 1000 µM) [%] | IC50 (Aβ42 fibrils [5]) [µM] |
| --- | --- | --- | --- | --- | --- | --- | --- | --- | --- | --- | --- | --- | --- | --- | --- | --- | --- | --- | --- |
| C[C@@H]1O[C@@H](OC[C@H]2O[C@@H](Oc3c(-c4ccc(O)c(O)c4)oc4cc(O)cc(O)c4c3=O)[C@H](O)[C@@H](O)[C@@H]2O)[C@H](O)[C@H](O)[C@H]1O [Rutin (RU), Rutin] | unable to reach the IC50 concentration |  |  |  | 54 ± 0.71 |  | 49 ± 0.25 | 57 ± 0.85 | 48 ± 0.33 |  | 59 ± 0.59 |  |  |  |  |  | unable to achieve IC50 value |  |  |
